Patent publication US20250387360A1, “Methods and Compositions for Treatment of Addiction” (University of Connecticut, priority 2024, published 2025)

What was measured:
Format in all cases: in vivo, mouse
[1] = test system: gene expression in the amygdala; assay: Bulk RNA-seq of amygdala (DESeq2, IPA)
Description: Total RNA was isolated from amygdala samples using the Direct-zol RNA Microprep Kit (Zymoresearch, CA, U.S.A). Quantification of total RNA and assessment of its purity ratios were performed using the NanoDrop 2000 spectrophotometer (Thermo Fisher Scientific, MA, U.S.A, RRID:SCR_018042).
Total RNA libraries were prepared for transcriptome sequencing using the Zymo-Seq RiboFree Stranded Total RNA library preparation kit (Zymo Research, CA, U.S.A) following the manufacturer's instructions. Further, rRNAs were depleted as part of the sample preparation process. Libraries were validated for length and adapter dimer removal using the Agilent TapeStation 4200 D1000 High Sensitivity assay (Agilent Technologies, CA, U.S.A, RRID:SCR_019398). Subsequent quantification and normalization were carried out using the dsDNA High Sensitivity Assay for Qubit 3.0 (Life Technologies, CA, U.S.A, RRID:SCR_020311). Sample libraries were then prepared for Illumina sequencing following the manufacturer's protocol (Illumina, CA, U.S.A). All the individual samples were consolidated into a single sequencing pool, with proportions targeting 30M reads/sample, and sequenced on the Illumina NovaSeq 6000 platform (Illumina, CA, U.S.A, RRID:SCR_016387).
Raw reads were subjected to adaptor removal and quality control including filtering of low-quality reads. Filtered reads were mapped to the mouse reference genome using STAR (Spliced Transcripts Alignment to a Reference, RRID:SCR_004463). Gene expression level was estimated by transcripts per million of transcript sequences. Principal component analysis (PCA) was performed to visualize overall gene expression differences between compared groups in several major principal components. The analysis of differential gene expression (DEG) was performed using the DESeq2 (RRID:SCR_015687) package for RNA-Seq data. […] The Benjamini-Hochberg procedure, also referred to as the false discovery rate (FDR) method, was applied to correct p-values for multiple testing. We utilized Ingenuity Pathway Analysis (IPA, RRID:SCR_008653) to predict pathways associated with differentially expressed genes and employed Gene Set Enrichment Analysis (GSEA, RRID:SCR_003199) to visualize the outcomes in a heatmap. Right tailed Fisher's exact test was performed in the IPA for identifying significant canonical pathways.
To gain a molecular understanding of the effects of sodium valerate supplementation on brain function, bulk RNA sequencing (RNA-seq) analysis was performed on amygdala tissue of mice that underwent the DID paradigm after sodium valerate or NaCl (n=7 mice/group) supplementation. […] DESeq2 identified a total of 301 DEG at the adjusted p value <0.25, 126 genes at the adjusted p value <0.10, and 75 genes at the adjusted p value <0.05. […] Among these genes, the top five protein coding genes with the highest expression in sodium valerate-supplemented mice are Kcna10 (potassium voltage-gated channel, shaker-related subfamily, member 10), Pln (phospholamban), H60C (histocompatibility antigen 60c), Idi1 (isopentenyl-diphosphate delta isomerase, pseudogene 3) and Snord34 (small nucleolar RNA, C/D box 34). […] PTGS2 is a prostanoids producer that responds to inflammation. Its downregulation in the sodium valerate supplemented group (log2Fold change: −0.65; adjusted p=0.0002) indicates an anti-inflammatory effect of valerate. […] As SCFAs may function in the brain through G protein-coupled receptors (GPCRs), gene expression levels of 85 GPRs were examined in the RNAseq data. […] IPA was performed to identify changes to the molecular signaling pathways and to comparatively assess the sodium valerate effects in the amygdala. […]

male mice (C57BL/6J) = assay: Six-week repeated DID protocol
Description: In this study, the impact of sodium valerate treatment on ethanol intake and blood ethanol concentration (BEC) was assessed using a six-week Drinking in the Dark (DID) protocol in male mice (C57BL/6J). All mice (n=30) were single-housed and had ad libitum access to food and their respective drinking water. Water bottles were removed 30 minutes prior to and throughout each DID session. During the two-week baseline period, all mice underwent a standardized DID paradigm consisting of a 4-day cycle each week: 2-hour access to 20% ethanol on days 1-3, followed by a 4-hour session on day 4. Starting in week three, mice were randomly assigned to one of three groups (10 mice per group): (1) Valerate-i.p., which received intraperitoneal injections of sodium valerate (200 mg/kg body weight) 30 minutes before each DID session; (2) Valerate-drinking water, which received 200 mM sodium valerate in drinking water for 30 minutes before to each DID session; and (3) Control, which received no valerate treatment. Ethanol consumption was evaluated on day 4 of each week (Wecks 1-6), and BEC was measured on day 4 of weeks 2, 4, and 6.

male C57BL/6J mice = assay: Intermittent-access 20% ethanol two-bottle-choice drinking
Description: Twenty male C57BL/6J mice were given access to 20% ethanol for three 24-hour sessions per week. On the first Monday, Wednesday, and Friday, mice were offered increasing concentrations of ethanol (3%, 6%, and 10% w/v, respectively) in one bottle, with water in a second bottle, to acclimate them to ethanol consumption. After this acclimation, mice received one bottle of 20% ethanol and one bottle of water every Monday, Wednesday, and Friday for 24 hours. To minimize side bias, the position of the bottles in the cage was alternated between sessions.
For the first 8 weeks, mice received intraperitoneal (i.p.) injections of phosphate-buffered saline (PBS) 30 minutes prior to each ethanol session to establish stable ethanol consumption (g/kg) and ethanol preference (ethanol intake as a proportion of total fluid intake). In the following 4 weeks (12 sessions), mice were randomly assigned to receive i.p. injections of either sodium valerate or sodium chloride (NaCl) at a dose of 600 mg/kg, 30 minutes before each ethanol session (n=10 per group). Ethanol and water consumption, as well as ethanol preference, were measured throughout the study to assess the effects of sodium valerate on ethanol drinking behavior compared to the NaCl control. After each 24-hour access period, the ethanol and water bottles were weighed, and mouse body weights were recorded to calculate ethanol intake (g/kg/24 hours) and water intake (mL/kg/24 hours). Ethanol preference was calculated as the ratio of ethanol intake to total fluid intake.

CCCCC(=O)[O-].[Na+] [sodium valerate]
MAPKs at the RNA level [1]: downregulated | six mitochondrial genes encoding subunits of NADH dehydrogenase (Complex I) [1]: consistently upregulated | downregulated genes among the 75 significant DEG ([1]; adjusted p <0.05): 28 | upregulated genes among the 75 significant DEG ([1]; adjusted p <0.05): 47 | PTGS2 expression, log2Fold change ([1]; adjusted p=0.0002): −0.65 | GPR158 expression, log2Fold change ([1]; unadjusted p<0.01): −0.26 | Gpr56 expression, log2Fold change ([1]; unadjusted p<0.01): 0.28 | ethanol consumption week 5, Valerate-drinking water (male mice (C57BL/6J); 200 mM in drinking water for 30 min before each DID session from week 3, n=10, p<0.05 vs control): significantly reduced | BEC week 6, Valerate-drinking water (male mice (C57BL/6J); 200 mM in drinking water for 30 min before each DID session, p<0.01 vs control): significant reductions | ethanol consumption week 5, Valerate-i.p. (male mice (C57BL/6J); 200 mg/kg i.p. 30 min before each DID session from week 3, n=10, p<0.01 vs control): significantly reduced | BEC week 6, Valerate-i.p. (male mice (C57BL/6J); 200 mg/kg i.p. 30 min before each DID session, p<0.01 vs control): significant reductions | ethanol consumption week 6, Valerate-i.p. (male mice (C57BL/6J); 200 mg/kg i.p. 30 min before each DID session, p<0.1 vs control): trend toward reduced ethanol consumption | effects during the initial weeks of treatment (male mice (C57BL/6J); both valerate groups): no significant effects | ethanol consumption, week 11 (male C57BL/6J mice; 600 mg/kg i.p. 30 min before each session, n=10, baseline 24.38±4.19, p<0.001): 15.47±1.49 g/kg/24 hours | ethanol preference, week 11 (male C57BL/6J mice; 600 mg/kg i.p. 30 min before each session, n=10, baseline 66.81±4.8%, p<0.01): 54.26±4.5% | ethanol intake, week 12 (male C57BL/6J mice; 600 mg/kg i.p. 30 min before each session, n=10, p<0.001 vs baseline): 13.42±1.60 g/kg/24 hours | ethanol preference, week 12 (male C57BL/6J mice; 600 mg/kg i.p. 30 min before each session, n=10, p<0.01 vs baseline): 52.06±3.92% | ethanol consumption compared to the NaCl control group (male C57BL/6J mice; 600 mg/kg i.p., weeks 11 and 12, p<0.001 for both weeks): significantly lower | ethanol preference compared to the NaCl control group (male C57BL/6J mice; 600 mg/kg i.p., weeks 11 and 12, p<0.01 for both weeks): significantly lower
